Earlier results as cited in patent US20050065129A1, “2-Alkylidene-19-nor-vitamin D derivatives for the treatment of frailty, muscle damage or sarcopenia” (Pfizer Inc, priority 2003, published 2005).

What was measured:
[1] = tested on: Intestinal Calcium Transport; conditions: chronic 7 days, 130 and/or 260 pmol/day, rats
[2] = tested on: Serum Calcium (Bone Calcium Mobilization); conditions: chronic 7 days, rats; for bone calcium mobilization activity (in words): 130 and 260 pmol/day

| Compound | intestinal calcium transport activity (in words) [1] | bone calcium mobilization activity (in words) [2] | bone calcium mobilization (serum calcium) activity relative to 1,25-(OH)2D3 (native hormone) ([2]; estimate) |
| --- | --- | --- | --- |
| C=C1/C(=C\C=C2/CCC[C@]3(C)[C@@H]([C@H](C)CCCC(C)(C)O)CC[C@@H]23)C[C@@H](O)C[C@@H]1O [1,25-(OH)2D3, 1,25-dihydroxyvitamin D3, reference compound] | expected elevation | – | – |
| C=C1[C@H](O)CC(=C/C=C2\CCC[C@]3(C)[C@@H]([C@H](C)CCCC(C)(C)O)CC[C@@H]23)C[C@H]1O [2-Methylene-19-Nor-1,25-(OH)2D3, 1α,25-dihydroxy-2-methylene-19-nor-vitamin D3] | no intestinal calcium transport activity | extremely strong bone calcium mobilization | 10-100 times |
| C=C1[C@H](O)CC(=C/C=C2\CCC[C@]3(C)[C@@H]([C@@H](C)CCCC(C)(C)O)CC[C@@H]23)C[C@H]1O [2-Methylene-19-Nor-20S-1,25-(OH)2D3, (20S)-1α,25-dihydroxy-2-methylene-19-nor-vitamin D3] | no significant change | most potent compound tested | – |
